Assay: Antagonist activity at recombinant human GPR55 expressed in HEK293 cells assessed as inhibition of LPI mediated receptor activation by measuring LPI EC50 after 5 mins by xCELLigence assay (Rvb = 1.6 to 4.1 nM)

Compound	EC50 [nM]
COc1ccc2c(c1)OC(C)(C)c1cn(CNC(=O)CN3CCN(c4ccccc4)CC3)nc1-2	32
COc1ccc(N2CCN(CC(=O)NCn3ncc4c3-c3ccc(OC)cc3OC4(C)C)CC2)cc1	27
COc1ccc2c(c1)OC(C)(C)c1cn(CCN3CCN(C(=O)C4CCCO4)CC3)nc1-2 (centres undefined)	25
COc1ccc2c(c1)OC(C)(C)c1cn(CNC(=O)CN3CCN(c4ccccc4OC)CC3)nc1-2	28
COc1ccc2c(c1)OC(C)(C)c1cnn(CCN3CCN(C(=O)c4ccco4)CC3)c1-2	20
COc1ccc2c(c1)OC(C)(C)c1cn(CCN3CCN(C(=O)c4ccccc4)CC3)nc1-2	16
COc1ccc2c(c1)OC(C)(C)c1cnn(CNC(=O)CN3CCN(c4ccccc4)CC3)c1-2	28
COc1ccc2c(c1)OC(C)(C)c1cnn(CCN3CCN(C(=O)c4cccs4)CC3)c1-2	29
COc1ccc2c(c1)OC(C)(C)c1cn(CNC(=O)CN3CCN(c4cccc(C)c4C)CC3)nc1-2	30
